Experiments:
[1] = test system: existing sprouts on post-dormant potatoes with peeps and sprouts extant; experiment: Comparison of thermofogged sprout suppressing chemicals for "burn" of existing sprouts (Example IV); type: in vivo; set-up: key to Burn “old” / Burn “new”: +: indicates fair effectiveness; ++: indicates good effectiveness; +++: indicates excellent effectiveness; A minus (−) sign indicates no noticeable effect; a +/− sign indicates only partial effectiveness at a minimal level; settings: for Burn “old”: effect upon old sprouts, up to nine months old; for Burn “old” / Burn “new”: thermofogged at comparable dosages; for Burn “new”: newly emerged sprouts and peeps, generally less than a month
Experimental: Various sprout suppressing chemicals were compared for their ability to suppress existing sprouts on post-dormant potatoes with peeps and sprouts extant. […] Clove oil applied at a predetermined dosage gave a “burn” effectiveness of 46% of existing peeps while 1-nonanol at a dosage one-fourth as great gave a 50% “burn.” At a one-half dosage, 1-nonanol provided a 100% “burn” effectiveness within 24 hours after treatment. In the above table “Burn old” refers to the effect upon old sprouts, which included sprouts up to nine months old, these being generally more difficult to desiccate, while “burn new” refers to newly emerged sprouts and peeps, generally less than a month or so in existence.

potatoes = experiment: 1-octanol thermofog on cold versus 53° F. potatoes, condensation damage (Example V); type: in vivo
Experimental: An experiment was performed wherein 1-octanol at various dosages were applied to potatoes wherein the temperature of the potatoes was at about 36° F. The 1-octanol was applied via an electric thermofogger at a fog temperature within the fogger of about 500° F. to obtain a stable aerosol. The potatoes were examined about 24 hours after treatment. […] The potatoes were cut open at the dark spots. Damage to the flesh of the potatoes existed to a depth of about 5 mm to 25 mm. Potato flesh was otherwise undamaged except under the dark spots.

stored potatoes = settings: continuous vapors by wicking over an extended period; cited from earlier work
peeps and sprouts = experiment: Fogging of 1-nonanol versus clove oil, "burning" peeps and sprouts (Example III); type: in vivo, potatoes; settings: short duration, similar dosages
[2] = test system: peeps and sprouts on stored potatoes; experiment: Thermofog treatment of stored potatoes with 1-nonanol to determine sprout destruction (Example II); type: in vivo
Experimental: Stored potatoes in a small open container were treated with 1-nonanol (n-nonyl alcohol) via a thermofogger to determine sprout destruction. The thermofogger was operated at an aerosol chamber temperature of about 500° F. A good stable aerosol was produced. The alcohol was applied at a dosage of 8 ml for 2 kg of potatoes. The system was open so that the actual dosage reaching the potatoes was considerably less than the fogged amount. The potatoes were exposed to the thermofog for approximately one minute, after which the treatment containers (1-gallon bottles) were sealed and held at 53° F. for 24 hours before being connected to normal storage ventilation. In a first test the potatoes had white “peeps” showing from the eyes before treatment. […] In a second test the potatoes were treated with 1-nonanol at the same fogging temperature and dosage for the same period of time to achieve the same application dosage as in Example I. The potatoes in this storage had sprouts averaging in excess of about 2 cm in length. In this experiment, potatoes with very long sprouts, some up to eight cm or more, were treated with 1, 2, and 4 times sequentially with full strength nonanol. […] This “spray-paint” method was thus used to try to bring the total amount (rate) of nonanol up to a level capable of killing large sprouts as well as peeps, a necessity in commercial settings where sprouts of all sizes exist. It required 4 applications to reach the level at which these large sprouts were completely killed. […] While this was a small scale test, a whole storage full of potatoes in this condition would likely lead to secondary decays. Single or even double applications didn't reach a level of nonanol high enough to completely kill these large-sized sprouts.

## CCCCCCCCCCCCO [Dodecanol]
[1]
  Burn “old”: −\+
  Burn “new”: −

## CCCCCCCCCCO [1-Decanol, 1-decanol]
[1]
  Burn “old”: ++
  Burn “new”: ++

## CCCCCCO [Hexanol]
[1]
  Burn “old”: +
  Burn “new”: ++

## CCCCCCCCO [1-Octanol, 1-octanol]
potatoes; potato, in vivo, 24 h
  depth of damage to the flesh at the dark spots: 5-25 mm
potatoes; potatoes at about 36° F., examined about 24 hours after treatment
  condition of potato skin: large dark damaged spots
potatoes; potatoes held at 53° F., similar dosage, fogging temperature and rate
  injury to potato skin or flesh: did not show injury to the potato skin or to its flesh
[1]
  Burn “old”: ++
  Burn “new”: +++

## CC(CCO)CC(C)(C)C (centres unmarked) [3,5,5-trimethyl hexanol]
Stored potatoes
  damage to potato flesh: damaged potato flesh, especially near affected eyes
  effect on existing sprouts: strongly “burned” (desiccated) existing sprouts

## CCCCCCCCCO [1-Nonanol, 1-nonanol]
[1]; dosage one-fourth as great as the clove oil dosage
  “burn” effectiveness of existing peeps: 50%
[1]
  Burn “old”: +++
  Burn “new”: +++
[1]; one-half dosage, within 24 hours after treatment
  “burn” effectiveness of existing peeps: 100%
Peeps and sprouts
  effectiveness in “burning” peeps and sprouts relative to clove oil: about four times as effective as clove oil
[2]; first test, 8 ml for 2 kg of potatoes fogged, open system, inspected about 24 hours after treatment
  effect on white “peeps”: burned to a dark color and were inactivated
[2]; first test, about 24 hours after treatment
  damage to potato flesh adjacent the eyes: without any damage to potato flesh adjacent the eyes
[2]; second test, 4 applications on large sprouts
  negative side effect observed: wet, slimy, sprout rot
[2]; second test, sprouts up to eight cm or more, sequential full strength applications
  applications required to completely kill large sprouts: 4 applications

## CCCCCOC(C)=O [AmylAcetate, reference compound]
[1]
  Burn “new”: ++

From US20140200142A1, “TREATMENT OF STORED TUBERS WITH AEROSOLS OF HIGHER ALCOHOLS” (1,4 Group, Inc., priority 2013, published 2014)
